The text below walks through data of patent publication US20240199587A1, “HETEROCYCLIC COMPOUNDS” (Hoffmann-La Roche Inc., priority 2021, published 2024).

Each structure is given as a SMILES string.

The IC50 is the concentration that gives 50% inhibition. Low values mean inhibition by little substance, high ones a need for much substance.

The target of the assay is T1, MAGL (Homo sapiens, UniProt Q99685).
T1 sequence (Q99685 1-303): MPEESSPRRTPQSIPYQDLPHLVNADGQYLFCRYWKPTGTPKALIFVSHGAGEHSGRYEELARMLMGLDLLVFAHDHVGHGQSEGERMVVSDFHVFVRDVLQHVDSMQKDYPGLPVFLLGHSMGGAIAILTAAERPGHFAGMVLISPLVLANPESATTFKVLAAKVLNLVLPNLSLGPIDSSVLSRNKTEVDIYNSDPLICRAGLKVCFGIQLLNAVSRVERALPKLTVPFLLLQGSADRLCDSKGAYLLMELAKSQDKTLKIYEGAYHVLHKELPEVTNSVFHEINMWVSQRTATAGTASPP
The assay is described as follows: 2-AG assay (MAGL inhibitory activity, hydrolysis of 2-arachidonoylglycerol to arachidonic acid followed by mass spectrometry). Format: biochemical. The note with it: 8 μM 2-arachidonoylglycerol, 15 min pre-incubation, 30 min incubation at RT, RapidFire MS readout. An outline of the steps: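 Arachidonic acid released from 8 μM 2-arachidonoylglycerol was quantified by online SPE triple-quadrupole MS (negative ESI, 303.1→259.1), normalised to d8-arachidonic acid internal standard. Reaction ran 30 min at RT after 15 min RT compound pre-incubation with […] MAGL in TRIS/EDTA/Tween-20 buffer, 2.5% DMSO.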
`O=C(N1CC2(CC(n3cnc(C4CC4)n3)C2)C1)N1CCC(OCC2(C(F)(F)F)CC2)C(F)(F)C1` (stereo not drawn) [Example 150, [6-(3-cyclopropyl-1,2,4-triazol-1-yl)-2-azaspiro[3.3]heptan-2-yl]-[3,3-difluoro-4-[[1-(trifluoromethyl)cyclopropyl]methoxy]-1-piperidyl]methanone] returned an IC50 of 162 nM.

As to `Cc1cc(C(=O)N2CC3(CC(n4ccc(C5CC5)n4)C3)C2)cnc1OCC1(C(F)(F)F)CC1` [Example 151, [6-(3-cyclopropylpyrazol-1-yl)-2-azaspiro[3.3]heptan-2-yl]-[5-methyl-6-[[1-(trifluoromethyl)cyclopropyl]methoxy]-3-pyridyl]methanone], the half-maximal inhibitory concentration (IC50) turned out to be 67.1 nM.

In turn, `Cc1cc(C(=O)N2CC3(CC(n4ccc(C5CC5)n4)C3)C2)cnc1OC(C)(C)C(F)(F)F` [Example 152, [6-(3-cyclopropylpyrazol-1-yl)-2-azaspiro[3.3]heptan-2-yl]-[5-methyl-6-(2,2,2-trifluoro-1,1-dimethyl-ethoxy)-3-pyridyl]methanone] displayed an IC50 of 312 nM.

Consider `O=C(c1cnc(OCC2(C(F)(F)F)CC2)c(C(F)(F)F)c1)N1CC2(CC(n3cnc(C4CC4)n3)C2)C1` [Example 153, [6-(3-cyclopropyl-1,2,4-triazol-1-yl)-2-azaspiro[3.3]heptan-2-yl]−[5-(trifluoromethyl)-6-[[1-(trifluoromethyl)cyclopropyl]methoxy]-3-pyridyl]methanone], for which inhibition was half-maximal at 14.9 nM (IC50).

`O=C(c1cnc(OCC2(C(F)(F)F)CC2)c(C2COC2)c1)N1CC2(CC(n3cnc(C4CC4)n3)C2)C1` [Example 154, [6-(3-cyclopropyl-1,2,4-triazol-1-yl)-2-azaspiro[3.3]heptan-2-yl]−[5-(oxetan-3-yl)-6-[[1-(trifluoromethyl)cyclopropyl]methoxy]-3-pyridyl]methanone] came in with an IC50 of 10 nM.

`O=C(N1CC2(CC(n3cnc(C4CC4)n3)C2)C1)C12CCC(COCC3(C(F)(F)F)CC3)(CC1)CC2` [Example 155, [6-(3-cyclopropyl-1,2,4-triazol-1-yl)-2-azaspiro[3.3]heptan-2-yl]−[4-[[1-(trifluoromethyl)cyclopropyl]methoxymethyl]-1-bicyclo[2.2.2]octanyl]methanone] yielded an IC50 of 20.8 nM.

Compound `CCc1ncn(C2CC3(C2)CN(C(=O)c2ccc(-c4noc(C(C)(C)C)n4)cc2)C3)n1` [Example 156, [4-(5-tert-butyl-1,2,4-oxadiazol-3-yl)phenyl]−[6-(3-ethyl-1,2,4-triazol-1-yl)-2-azaspiro[3.3]heptan-2-yl]methanone] displayed an IC50 of 33.9 nM.

As to `CCc1cn(C2CC3(C2)CN(C(=O)c2ccc(-c4noc(C(C)(C)C)n4)cc2)C3)cn1` [Example 157, [4-(5-tert-butyl-1,2,4-oxadiazol-3-yl)phenyl]-[6-(4-ethylimidazol-1-yl)-2-azaspiro[3.3]heptan-2-yl]methanone], the IC50 was determined as 43.7 nM.

Compound `CC(C)(C)c1nc(-c2ccc(C(=O)N3CC4(CC(n5cnc(C(F)(F)F)c5)C4)C3)cc2)no1` [Example 158, [4-(5-tert-butyl-1,2,4-oxadiazol-3-yl)phenyl]-[6-[4-(trifluoromethyl)imidazol-1-yl]-2-azaspiro[3.3]heptan-2-yl]methanone] showed an IC50 of 69.1 nM.

As for `CC(C)(C)c1nc(-c2ccc(C(=O)N3CC4(CC(n5cnc(Cl)c5)C4)C3)cc2)no1` [Example 159, [4-(5-tert-butyl-1,2,4-oxadiazol-3-yl)phenyl]-[6-(4-chloroimidazol-1-yl)-2-azaspiro[3.3]heptan-2-yl]methanone], the IC50 is 315 nM.

For `CC(C)(C)c1nc(-c2ccc(C(=O)N3CC4(CC(n5cnc(C#N)c5)C4)C3)cc2)no1` [Example 160, 1-[2-[4-(5-tert-butyl-1,2,4-oxadiazol-3-yl)benzoyl]-2-azaspiro[3.3]heptan-6-yl]imidazole-4-carbonitrile], the concentration for half-maximal inhibition (IC50) was 1010 nM.

For `CC(C)(C)c1nc(C23CC(C(=O)N4CC5(CC(n6cnc(C7CC7)c6)C5)C4)(C2)C3)no1` [Example 162, [3-(5-tert-butyl-1,2,4-oxadiazol-3-yl)-1-bicyclo[1.1.1]pentanyl]-[6-(4-cyclopropylimidazol-1-yl)-2-azaspiro[3.3]heptan-2-yl]methanone], the IC50 amounted to 475 nM.

With `CC(C)(C)c1nc(C23CC(C(=O)N4CC5(CC(n6cnc(C7CC7)n6)C5)C4)(C2)C3)no1` [Example 163, [3-(5-tert-butyl-1,2,4-oxadiazol-3-yl)-1-bicyclo[1.1.1]pentanyl]-[6-(3-cyclopropyl-1,2,4-triazol-1-yl)-2-azaspiro[3.3]heptan-2-yl]methanone], the IC50 came out at 192 nM.

For the compound `O=C(N1CC(c2cn(C3(C(F)(F)F)CC3)nn2)C1)N1CC2(CC(n3cnc(C4CC4)n3)C2)C1` [Example 164, [6-(3-cyclopropyl-1,2,4-triazol-1-yl)-2-azaspiro[3.3]heptan-2-yl]-[3-[1-[1-(trifluoromethyl)cyclo-propyl]triazol-4-yl]azetidin-1-yl]methanone], the IC50 was determined as 64.6 nM.

With `O=C(N1CC(n2cc(OCC(F)(F)F)cn2)C1)N1CC2(CC(n3cnc(C4CC4)n3)C2)C1` [Example 165, [6-(3-cyclopropyl-1,2,4-triazol-1-yl)-2-azaspiro[3.3]heptan-2-yl]-[3-[4-(2,2,2-trifluoroethoxy)pyrazol-1-yl]azetidin-1-yl]methanone], half-maximal inhibition (IC50) required 102 nM.

On to `O=C(N1CC(c2nc(C3(C(F)(F)F)CC3)no2)C1)N1CC2(CC(n3cnc(C4CC4)n3)C2)C1` [Example 166, [6-(3-cyclopropyl-1,2,4-triazol-1-yl)-2-azaspiro[3.3]heptan-2-yl]-[3-[3-[1-(trifluoromethyl)cyclo-propyl]-1,2,4-oxadiazol-5-yl]azetidin-1-yl]methanone], for which the 50% inhibitory concentration (IC50) stood at 97.9 nM.

In turn, `O=C(N1CC(c2cn(C3(C(F)(F)F)COC3)nn2)C1)N1CC2(CC(n3cnc(C4CC4)n3)C2)C1` [Example 167, [6-(3-cyclopropyl-1,2,4-triazol-1-yl)-2-azaspiro[3.3]heptan-2-yl]-[3-[1-[3-(trifluoromethyl)oxetan-3-yl]triazol-4-yl]azetidin-1-yl]methanone] returned an IC50 of 85.5 nM.

`CC(C)(C)c1nnc(-c2ccc(C(=O)N3CC4(CC(n5cnc(Cl)n5)C4)C3)cc2)o1` [Example 168, [4-(5-tert-butyl-1,3,4-oxadiazol-2-yl)phenyl]-[6-(3-chloro-1,2,4-triazol-1-yl)-2-azaspiro[3.3]heptan-2-yl]methanone] came in with an IC50 of 1490 nM.

With `CC(C)(C)c1nnc(-c2ccc(C(=O)N3CC4(CC(n5ccc(C6CC6)n5)C4)C3)cc2)o1` [Example 169, [4-(5-tert-butyl-1,3,4-oxadiazol-2-yl)phenyl]-[6-(3-cyclopropylpyrazol-1-yl)-2-azaspiro[3.3]heptan-2-yl]methanone], the IC50 was determined as 659 nM.

`CC(C)(C)n1cc(-c2ccc(C(=O)N3CC4(CC(n5cnc(Cl)n5)C4)C3)cc2)cn1` [Example 170, [4-(1-tert-butylpyrazol-4-yl)phenyl]-[6-(3-chloro-1,2,4-triazol-1-yl)-2-azaspiro[3.3]heptan-2-yl]methanone] showed an IC50 of 286 nM.

`CC(C)(C)c1nc(-c2ccc(C(=O)N3CC4(CC(n5ccc(C6CC6)n5)C4)C3)cc2)no1` [Example 171, [4-(5-tert-butyl-1,2,4-oxadiazol-3-yl)phenyl]-[6-(3-cyclopropylpyrazol-1-yl)-2-azaspiro[3.3]heptan-2-yl]methanone]: the half-maximal inhibitory concentration (IC50) was 96.4 nM.

In turn, `CC(C)(C)c1nc(-c2ccc(C(=O)N3CC4(CC(n5cnc(Cl)n5)C4)C3)cc2)no1` [Example 172, [4-(5-tert-butyl-1,2,4-oxadiazol-3-yl)phenyl]-[6-(3-chloro-1,2,4-triazol-1-yl)-2-azaspiro[3.3]heptan-2-yl]methanone] returned an IC50 of 170 nM.

Consider `O=C(C1CC(COCC2(C(F)(F)F)CC2)C1)N1CC2(CC(n3cnc(C4CC4)n3)C2)C1` (stereo not drawn) [Example 173, [6-(3-cyclopropyl-1,2,4-triazol-1-yl)-2-azaspiro[3.3]heptan-2-yl]−[3-[[1-(trifluoromethyl)cyclopropyl]methoxymethyl]cyclobutyl]methanone], for which the IC50 was found to be 546 nM.

`Cc1cc(C(=O)N2CC3(CC(n4cnc(Cl)n4)C3)C2)cnc1OCC1(C(F)(F)F)CC1` [Example 174, [6-(3-chloro-1,2,4-triazol-1-yl)-2-azaspiro[3.3]heptan-2-yl]-[5-methyl-6-[[1-(trifluoromethyl)cyclopropyl]methoxy]-3-pyridyl]methanone] displayed an IC50 of 183 nM.

Compound `Cc1cc(C(=O)N2CC3(CC(n4cnc(Cl)n4)C3)C2)cnc1OC(C)(C)C(F)(F)F` [Example 175, [6-(3-chloro-1,2,4-triazol-1-yl)-2-azaspiro[3.3]heptan-2-yl]-[5-methyl-6-(2,2,2-trifluoro-1,1-dimethyl-ethoxy)-3-pyridyl]methanone] registered an IC50 of 221 nM.

Turning to `O=C(N1CC(OCc2ccc(C(F)(F)F)cc2)C1)N1CC2(CC(n3cnc(N4CCC4)n3)C2)C1` [Example 177, (6-(3-(azetidin-1-yl)-1H-1,2,4-triazol-1-yl)-2-azaspiro[3.3]heptan-2-yl)(3-((4-(trifluoromethyl)benzyl)oxy)azetidin-1-yl)methanone], the IC50 worked out at 141 nM.

As to `CC(C)(C)c1nc(-c2ccc(C(=O)N3CC4(C3)CC(O)(c3cnc(C5CC5)o3)C4)cc2)no1` [Example 179, [4-(5-tert-butyl-1,2,4-oxadiazol-3-yl)phenyl]−[6-(2-cyclopropyloxazol-5-yl)-6-hydroxy-2-azaspiro[3.3]heptan-2-yl]methanone], 1030 nM corresponded to half-maximal inhibition (IC50).
